Source: patent US5952310A, “Glycopeptide hexapeptides” (priority 1998, dated 1999)

How the values were obtained:
[1] = tested on: Staphylococcus epidermidis 270
[2] = tested on: Staphylococcus aureus 489; test: MIC, standard broth micro-dilution assay, SA489; type: cell-based
[3] = tested on: Enterococcus faecium and faecalis (SENSITIVE); test: MIC, standard broth micro-dilution assay, sensitive enterococci; type: cell-based; conditions: geometric mean of 4-6 isolates
[4] = tested on: Staphylococcus haemolyticus 415; test: MIC, standard broth micro-dilution assay, SH 415; type: cell-based
[5] = tested on: Enterococcus faecium and faecalis (RESISTANT); conditions: geometric mean of 4-6 isolates
Method: (§1) The minimal inhibitory concentrations (MICs) were determined using a standard broth micro-dilution assay.

[6] = tested on: Staphylococcus aureus 446
Method: as §1

[7] = tested on: Staphylococcus haemolyticus 105; test: MIC, standard broth micro-dilution assay, SH 105; type: cell-based
[8] = tested on: Staphylococcus aureus 447; test: MIC, standard broth micro-dilution assay, SA447; type: cell-based
[9] = tested on: Streptococcus pyogenes C203; test: MIC, standard broth micro-dilution assay, SPY C203; type: cell-based
[10] = tested on: Streptococcus pneumoniae P1
Method: as §1

Compound: CC1OC(OC2c3ccc(c(Cl)c3)Oc3cc4cc(c3OC3OC(CO)C(O)C(O)C3OC3CC(C)(N)C(O)C(C)O3)Oc3ccc(cc3Cl)C(O)C(N)C(=O)NC(CC(N)=O)C(=O)NC4C(=O)NC3C(=O)NC2C(=O)NC(C(=O)O)c2cc(O)cc(O)c2-c2cc3ccc2O)CC(C)(N)C1O (stereo not drawn) [Example 1, DESLEUCYL-A82846B]
- Minimal Inhibitory Concentration (MIC) SE 270 [1]: 64
- Minimal Inhibitory Concentration (MIC) SA 489 [2]: 32
- Minimal Inhibitory Concentration (MIC) Sensitive [3]: > 128
- Minimal Inhibitory Concentration (MIC) SH 415 [4]: > 64
- Minimal Inhibitory Concentration (MIC) Resistant [5]: > 128
- Minimal Inhibitory Concentration (MIC) SA 446 [6]: 64
- Minimal Inhibitory Concentration (MIC) SH 105 [7]: > 64
- Minimal Inhibitory Concentration (MIC) SA 447 [8]: 64
- Minimal Inhibitory Concentration (MIC) SPY C203 [9]: 4

Compound: CC1OC(OC2c3ccc(c(Cl)c3)Oc3cc4cc(c3OC3OC(CO)C(O)C(O)C3OC3CC(C)(NCc5ccc(Cl)cc5)C(O)C(C)O3)Oc3ccc(cc3Cl)C(O)C(N)C(=O)NC(CC(N)=O)C(=O)NC4C(=O)NC3C(=O)NC2C(=O)NC(C(=O)O)c2cc(O)cc(O)c2-c2cc3ccc2O)CC(C)(N)C1O (stereo not drawn) [Example 2, N^DISACC -(p-CHLOROBENZYL)-DESLEUCYL-A82846B]
- Minimal Inhibitory Concentration (MIC) SE 270 [1]: 2
- Minimal Inhibitory Concentration (MIC) SA 489 [2]: 0.5
- Minimal Inhibitory Concentration (MIC) Sensitive [3]: 5.2
- Minimal Inhibitory Concentration (MIC) SH 415 [4]: 4
- Minimal Inhibitory Concentration (MIC) Resistant [5]: > 81
- Minimal Inhibitory Concentration (MIC) SA 446 [6]: 4
- Minimal Inhibitory Concentration (MIC) SH 105 [7]: 2
- Minimal Inhibitory Concentration (MIC) SA 447 [8]: 2
- Minimal Inhibitory Concentration (MIC) SPY C203 [9]: ≤ 0.06

Compound: CC1OC(OC2c3ccc(c(Cl)c3)Oc3cc4cc(c3OC3OC(CO)C(O)C(O)C3OC3CC(C)(NCc5ccc(Oc6ccccc6)cc5)C(O)C(C)O3)Oc3ccc(cc3Cl)C(O)C(N)C(=O)NC(CC(N)=O)C(=O)NC4C(=O)NC3C(=O)NC2C(=O)NC(C(=O)O)c2cc(O)cc(O)c2-c2cc3ccc2O)CC(C)(N)C1O (stereo not drawn) [Example 3, N^DISACC -(p-PHENOXYBENZYL)-DESLEUCYL-A82846B]
- Minimal Inhibitory Concentration (MIC) SE 270 [1]: 0.5
- Minimal Inhibitory Concentration (MIC) SA 489 [2]: 1
- Minimal Inhibitory Concentration (MIC) Sensitive [3]: 14
- Minimal Inhibitory Concentration (MIC) SH 415 [4]: 1
- Minimal Inhibitory Concentration (MIC) Resistant [5]: 45
- Minimal Inhibitory Concentration (MIC) SPN P1 [10]: ≤ .06
- Minimal Inhibitory Concentration (MIC) SA 446 [6]: 2
- Minimal Inhibitory Concentration (MIC) SH 105 [7]: 2
- Minimal Inhibitory Concentration (MIC) SA 447 [8]: 1
- Minimal Inhibitory Concentration (MIC) SPY C203 [9]: ≤ 0.06

Compound: CC1OC(OC2c3ccc(c(Cl)c3)Oc3cc4cc(c3OC3OC(CO)C(O)C(O)C3OC3CC(C)(NCc5ccc(-c6ccccc6)cc5)C(O)C(C)O3)Oc3ccc(cc3Cl)C(O)C(N)C(=O)NC(CC(N)=O)C(=O)NC4C(=O)NC3C(=O)NC2C(=O)NC(C(=O)O)c2cc(O)cc(O)c2-c2cc3ccc2O)CC(C)(N)C1O (stereo not drawn) [Example 4, N^DISACC -(p-PHENYLBENZYL)-DESLEUCYL-A82846B]
- Minimal Inhibitory Concentration (MIC) SE 270 [1]: 1
- Minimal Inhibitory Concentration (MIC) SA 489 [2]: 0.25
- Minimal Inhibitory Concentration (MIC) Sensitive [3]: 3.4
- Minimal Inhibitory Concentration (MIC) SH 415 [4]: 1
- Minimal Inhibitory Concentration (MIC) Resistant [5]: 16
- Minimal Inhibitory Concentration (MIC) SPN P1 [10]: 0.125
- Minimal Inhibitory Concentration (MIC) SA 446 [6]: 2
- Minimal Inhibitory Concentration (MIC) SH 105 [7]: 1
- Minimal Inhibitory Concentration (MIC) SA 447 [8]: 1
- Minimal Inhibitory Concentration (MIC) SPY C203 [9]: ≤ 0.06

Compound: CCCCc1ccc(CNC2(C)CC(OC3C(Oc4c5cc6cc4Oc4ccc(cc4Cl)C(OC4CC(C)(N)C(O)C(C)O4)C4NC(=O)C(NC(=O)C6NC(=O)C(CC(N)=O)NC(=O)C(N)C(O)c6ccc(c(Cl)c6)O5)c5ccc(O)c(c5)-c5c(O)cc(O)cc5C(C(=O)O)NC4=O)OC(CO)C(O)C3O)OC(C)C2O)cc1 (stereo not drawn) [Example 5, N^DISACC -(p-n-BUTYLBENZYL)-DESLEUCYL-A82846B]
- Minimal Inhibitory Concentration (MIC) SE 270 [1]: 1
- Minimal Inhibitory Concentration (MIC) SA 489 [2]: 1
- Minimal Inhibitory Concentration (MIC) Sensitive [3]: 9.2
- Minimal Inhibitory Concentration (MIC) SH 415 [4]: 2
- Minimal Inhibitory Concentration (MIC) Resistant [5]: 108
- Minimal Inhibitory Concentration (MIC) SPN P1 [10]: 0.25
- Minimal Inhibitory Concentration (MIC) SA 446 [6]: 1
- Minimal Inhibitory Concentration (MIC) SH 105 [7]: 1
- Minimal Inhibitory Concentration (MIC) SA 447 [8]: 2
- Minimal Inhibitory Concentration (MIC) SPY C203 [9]: 0.125

Compound: CC1OC(OC2c3ccc(c(Cl)c3)Oc3cc4cc(c3OC3OC(CO)C(O)C(O)C3OC3CC(C)(NCc5ccc(-c6ccc(Cl)cc6)cc5)C(O)C(C)O3)Oc3ccc(cc3Cl)C(O)C(N)C(=O)NC(CC(N)=O)C(=O)NC4C(=O)NC3C(=O)NC2C(=O)NC(C(=O)O)c2cc(O)cc(O)c2-c2cc3ccc2O)CC(C)(N)C1O (stereo not drawn) [Example 6, N^DISACC -(p-(p-CHLOROPHENYL)-BENZYL)DESLEUCYL-A82846B]
- Minimal Inhibitory Concentration (MIC) SE 270 [1]: 0.5
- Minimal Inhibitory Concentration (MIC) SA 489 [2]: 2
- Minimal Inhibitory Concentration (MIC) Sensitive [3]: 2.6
- Minimal Inhibitory Concentration (MIC) SH 415 [4]: 1
- Minimal Inhibitory Concentration (MIC) Resistant [5]: 6.7
- Minimal Inhibitory Concentration (MIC) SPN P1 [10]: 0.25
- Minimal Inhibitory Concentration (MIC) SA 446 [6]: 2
- Minimal Inhibitory Concentration (MIC) SH 105 [7]: 0.5
- Minimal Inhibitory Concentration (MIC) SA 447 [8]: 1
- Minimal Inhibitory Concentration (MIC) SPY C203 [9]: ≤ .06

Compound: CC1OC(OC2c3ccc(c(Cl)c3)Oc3cc4cc(c3OC3OC(CO)C(O)C(O)C3O)Oc3ccc(cc3Cl)C(O)C(N)C(=O)NC(CC(N)=O)C(=O)NC4C(=O)NC3C(=O)NC2C(=O)NC(C(=O)O)c2cc(O)cc(O)c2-c2cc3ccc2O)CC(C)(N)C1O (stereo not drawn) [Example 7, N^DISACC -DES-EPIVANCOAMINYL-DESLEUCYL-A82846B]
- Minimal Inhibitory Concentration (MIC) SE 270 [1]: > 64
- Minimal Inhibitory Concentration (MIC) SA 489 [2]: 8
- Minimal Inhibitory Concentration (MIC) Sensitive [3]: 56
- Minimal Inhibitory Concentration (MIC) SH 415 [4]: > 64
- Minimal Inhibitory Concentration (MIC) Resistant [5]: > 128
- Minimal Inhibitory Concentration (MIC) SPN P1 [10]: 2
- Minimal Inhibitory Concentration (MIC) SA 446 [6]: 32
- Minimal Inhibitory Concentration (MIC) SH 105 [7]: 64
- Minimal Inhibitory Concentration (MIC) SA 447 [8]: 64
- Minimal Inhibitory Concentration (MIC) SPY C203 [9]: 4

Compound: CC1OC(OC2c3ccc(c(Cl)c3)Oc3cc4cc(c3OC3OC(CO)C(O)C(O)C3OC3CC(C)(NCCCCCCCCc5ccccc5)C(O)C(C)O3)Oc3ccc(cc3Cl)C(O)C(N)C(=O)NC(CC(N)=O)C(=O)NC4C(=O)NC3C(=O)NC2C(=O)NC(C(=O)O)c2cc(O)cc(O)c2-c2cc3ccc2O)CC(C)(N)C1O (stereo not drawn) [Example 8, N^DISACC -(8-PHENYL-n-OCTYL)DESLEUCYL-A82846B]
- Minimal Inhibitory Concentration (MIC) SE 270 [1]: 1
- Minimal Inhibitory Concentration (MIC) SA 489 [2]: 1
- Minimal Inhibitory Concentration (MIC) Sensitive [3]: 0.76
- Minimal Inhibitory Concentration (MIC) SH 415 [4]: 2
- Minimal Inhibitory Concentration (MIC) Resistant [5]: 5.7
- Minimal Inhibitory Concentration (MIC) SPN P1 [10]: 0.125
- Minimal Inhibitory Concentration (MIC) SA 446 [6]: 4
- Minimal Inhibitory Concentration (MIC) SH 105 [7]: 0.25
- Minimal Inhibitory Concentration (MIC) SA 447 [8]: 2
- Minimal Inhibitory Concentration (MIC) SPY C203 [9]: 0.125
